In US5747545A, “Method of preventing NMDA receptor complex-mediated Neuronal damage” (priority 1995, dated 1998):
Entries after “also recorded” stand apart in the source; their conditions may differ.

What was measured:
[1] = system: NMDA receptor (rat cortical neurons in culture); test: Digital fura-2 imaging of NMDA-evoked intracellular [Ca2+] in cultured cortical neurons; format: cell-based, rat (Sprague-Dawley); settings: for Effect on NMDA-evoked [Ca2+]i response (SNOC experiment): after 2 mM DTT, 3 min exposure to 100 μM SNOC, NMDA 50 μM, FIG. 5A, P<0.01
[2] = system: NMDA receptor (cortical neurons); test: Patch-clamp recording of NMDA-evoked current in cortical neurons; format: cell-based, rat (Sprague-Dawley); settings: for Effect on NMDA-evoked current: 50 μM NMDA + 1 μM glycine, -60 mV, DTT 2 mM, NTG 500 μM, DTNB 500 μM, 2 min exposure, washout, FIG. 4
[3] = system: NMDA receptor (rat cortical neurons in culture); test: Digital fura-2 imaging of NMDA-evoked intracellular [Ca2+] in cultured cortical neurons; format: cell-based, rat (Sprague-Dawley); settings: 50 μM NMDA; Examples 1-2; NTG 100 μM in Example 2
Protocol: The concentration of intracellular free Ca^2+ ([Ca^2+ ]i) is measured in neonatal cortical neurons by digital imaging microscopy with the Ca^2+ sensitive fluorescent dye fura 2, as follows. The same cortical neuronal cultures as described above are used. During Ca^2+ measurements, unless otherwise stated the fluid bathing the neurons consists of Hanks' balanced salts: 137.6 mM NaCl, 1 mM NaHCO3, 0.34 mM Na2 HPO4, 0.44 mM KH2 PO4, 5.36 mM KCl, 1.25 mM CaCl2, 0.5 mM MgSO4, 0.5 mM MgCl2, 5 mM Hepes NaOH, 22.2 mM glucose, and sometimes with phenol red indicator (0.001% v/v); pH 7.2. NMDA (in the absence Mg^++), glutamate, and other substances are usually applied to the neurons by pressure ejection after dilution in this bath solution. Neuronal [Ca^2+ ]i is analyzed with fura 2-acetoxy-methyl ester (AM) as described [Grynkiewicz, et al., J. Biol. Chem. 260:3440 (1985); Williams et al., Nature 318:558 (1985); Connor et al., J. Neurosci. 7:1384 (1987); Connor et al., Science 240:649 (1988); Cohan et al., J. Neurosci. 7:3588 (1987); Mattson, et al., ibid, 9:3728 (1989)]. After adding Eagle's minimum essential medium containing 10 μM fura 2-AM to the neurons, the cultures are incubated at 37° C. in a 5% CO2 /95% air humidified chamber and then rinsed. The dye is loaded, trapped, and deesterified within 1 hour, as determined by stable fluorescence ratios and the effect of the Ca^2+ ionophore ionomycin on [Ca^2+ ]i is measured. During Ca^2+ imaging, the cells are incubated in a solution of Hepes-buffered saline with Hanks' balanced salts. The [Ca^2+ ]i is calculated from ratio images that are obtained by measuring the fluorescence at 500 nm that is excited by 350 and 380 nm light with a DAGE MTI 66 SIT or QUANTEX QX-100 Intensified CCD camera mounted on a Zeiss Axiovert 35 microscope. Exposure time for each picture is 500 ms. Analysis is performed with a Quantex (Sunnyvale, Calif.) QX7-210 image-processing system. Since cells are exposed to ultraviolet light only during data collection (generally less than a total of 20 s per cell), bleaching of fura 2 is minimal.
In this experiment, the effect of NTG on intracellular [Ca^++ ] increases induced by NMDA were followed using digital [Ca^++ ] imaging techniques, based on the dye fura-2.
Specifically, the model for NMDA-mediated neurotoxicity involves exposure of cultured rat cortical neurons to NMDA in the presence of glycine (a co-agonist).
Cortical cultures were derived from embryonic (fetal day 15 or 16) Sprague-Dawley rats as described previously (Dichter, 1978; Rosenberg and Aizenman, 1989). […]

[4] = system: cortical neurons (NMDA receptor-mediated neurotoxicity); test: Neurotoxicity assay: survival of cortical neurons after DTT and NMDA exposure; format: cell-based, rat; settings: chemical reduction of redox modulatory site
Protocol: To test compounds for their ability to prevent neurotoxicity, neuronal cell death may be assayed as follows. […] The candidate compound is tested by addition (e.g., in a series of concentrations ranging from 0.1 nM-10 mM) after DTT treatment but before NMDA treatment. The candidate compound can be added for minutes, hours, or even days prior to its washout period. […] Neuronal cultures are scored for cell survival after this overnight incubation because NMDA toxicity is often delayed by several hours following NMDA exposure.
Using the neurotoxicity assay described above, the compounds sodium nitroprusside and nitroglycerin were tested individually for their ability to increase survival of neonatal cortical neurons.
As shown in FIG. 6A-6D, surviving neurons are expressed as the percentage of viable neurons in the control culture dishes in the same experiment. The concentrations of drugs were as follows: APV (2 mM), NTG (100 μM), SNP (400 μM), DTT (0.5-2 mM), and reduced Hb (500 μM). […] Values are mean ±SEM for experiments run in triplicate on sibling cultures on separate days (total of 32 experiments). Astericks indicate significant difference compared with the value for DTT-NMDA exposure, P<0.05 (ANOVA followed by Scheffe multiple comparison of means.

[5] = adult treated for Parkinson's symptoms for several weeks; reversible after discontinuation; cited from earlier work
[6] = system: cortical neurons (neuronal survival); settings: SNOC or purified peroxynitrite incubation; listed as OONO^-
Protocol: S-nitrosocysteine was added as a source of NO.cndot. to cerebrocortical cultures (Lei et al., (1992) Neuron 8:1087-1099; Stamler et al., (1992) Science 258:1898-1902).
Peroxynitrite leads to lipid peroxidation and massive oxidation of sulfhydryls (Radi et al., (1991) J. Biol. Chem. 266:4244-4250; Radi et al., (1991) Arch. Biochem. Biophys. 288:481-487).
Values are expressed as mean+s.e.m. (n=9). Statistical comparisons were performed by an analysis of variance followed by a Scheffe multiple comparison of means (*, P<0.01 compared to control; **, P<0.05 compared to control; .dagger., P<0.01 compared to nitroso compound+SOD/catalase).
Specifically, the data in FIG. 7 were generated using mixed neuronal and glial cortical cultures from neonatal rats, as described previously (Lei, et al., (1992) Neuron 8:1087-1099). In at least three separate experiments, triplicate cultures were incubated overnight in Earle's buffered saline solution (EBSS) containing various concentrations of SNOC, peroxynitrite, SOD, catalase, or glutamate. […] The culture fluid was assayed for […] (LDH) as an indicator of neuronal survival by measuring the absorbance at 450 nm (Koh et al., (1987) J. Neurosci. Meth. 20:83-90). The cultures were also scored for neuronal viability by cell counting, generally with 0.2% trypan blue, after fixation in 2.5% glutaraldehyde, as described above. Neurons from cultures grown on 15 mm diameter cover slips were counted in a masked fashion in ~30 microscopic fields at 200 x.

With `O[C@H](CS)[C@H](O)CS` (racemic) [DTT, dithiothreitol] the “Effect on NMDA-evoked [Ca2+]i response (SNOC experiment)” value [1] was “the NMDA-evoked response was increased; also recorded: fully reversed the inhibitory effect of S-nitrosocysteine”, the “Effect on NMDA-evoked current” value [2] was “enhanced the NMDA-evoked current; also recorded: increased NMDA-activated currents” and the “Effect on NMDA-evoked [Ca2+]i response” value [3] was “reversed the effect of NTG”. The “Effect on neurotoxic effect of NMDA” value [4] was “increases the neurotoxic effect of NMDA”.

For `O[C@H](CS)[C@H](O)CS` (relative stereo) [dithiothreitol (DTT)], the “Effect on NMDA-evoked [Ca2+]i response” value [3] was “further enhanced”.

In the case of `O=C(O)c1cc(SSc2ccc([N+](=O)[O-])c(C(=O)O)c2)ccc1[N+](=O)[O-]` [DTNB, 5,5dithio-bis-2-nitrobenzoic acid], the “Effect on NMDA-evoked current” value [2] is reported as “decreased the responses slightly”, the “Effect on amplitude of NMDA evoked current following alkylation with NEM” value ([2]; after 1-5 mM NEM) is reported as “neither NTG nor DTNB significantly affected the amplitude of NMDA evoked current” and the “Effect on NMDA-evoked [Ca2+]i response” value [3] is reported as “decreased the NMDA evoked [Ca^2+ ]i responses”.

In the case of `CCN1C(=O)C=CC1=O` [NEM, N-ethylmalemide], the “Effect of NEM pretreatment on the SNOC effect on NMDA-evoked [Ca2+]i” value ([1]; NEM pretreatment, FIG. 5B) is reported as “blocks the effect of SNOC”.

With `CN[C@H](CC(=O)O)C(=O)O` [NMDA, N-methyl-D-aspartate] the “Maximum NMDA response obtained after exposure to DTT, [Ca2+]i” value ([1]; NMDA 50 μM after 2 mM DTT, FIG. 5) was ~ 750 nM [Ca2+]i.

For `NC(CSN=O)C(=O)O` (stereo not shown) [S-nitrosocysteine (SNOC)], the “Effect on NMDA-evoked [Ca2+]i response (SNOC experiment)” value [1] was “inhibited”.

For `Cl.NC12CC3CC(CC(C3)C1)C2` [amantadine, 1-adamantanamine hydrochloride], the “Visual loss (case report)” value [5] is given as “one case report of visual loss in an adult patient”.

With `O=NOO` [peroxynitrite] the “Killing of cortical neurons” value [6] was “kills neurons in a dose-dependent fashion”.
